Reference: patent US20090209552A1, “Organic Compounds” (Novartis AG, priority 2006, published 2009)

How the values were obtained:
human CRTh2 [1] = molecular target: T1, human CRTh2 (Homo sapiens, UniProt Q9Y5Y4); assay: CRTH2 cAMP functional assay in CHO.K1-CRTh2 cells; assay type: cell-based; parameters: expressed in transfected cells; host or cells: CHO.K1 (CHO.K1-CRTh2), whole cells; conditions: inhibition of PGD2-mediated attenuation of forskolin-induced cAMP accumulation in CHO.K1-CRTh2 cells
T1 sequence (Q9Y5Y4 1-395): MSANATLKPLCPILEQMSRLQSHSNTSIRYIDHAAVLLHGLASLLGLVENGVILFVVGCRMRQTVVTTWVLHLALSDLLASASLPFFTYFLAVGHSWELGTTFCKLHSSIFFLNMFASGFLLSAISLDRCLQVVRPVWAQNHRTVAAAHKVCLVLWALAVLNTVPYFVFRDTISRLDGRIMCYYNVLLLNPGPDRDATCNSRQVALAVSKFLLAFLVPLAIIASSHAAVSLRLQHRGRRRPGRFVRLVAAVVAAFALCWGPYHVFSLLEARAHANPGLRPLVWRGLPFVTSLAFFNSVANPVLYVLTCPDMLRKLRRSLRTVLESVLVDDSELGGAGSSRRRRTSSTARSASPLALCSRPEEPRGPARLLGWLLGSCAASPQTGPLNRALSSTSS
Protocol: where S is the concentration of radioligand and Kd is the dissociation constant. CRTH2 cAMP Functional Assay Protocol
This assay is conducted in CHO.K1-CRTh2 cells. cAMP is generated in the cell by stimulating cells with 5 μM forskolin, an adenylate cyclase activator. PGD2 is added to activate the CRTh2 receptor which results in the attenuation of the forskolin-induced cAMP accumulation. Potential CRTh2 antagonists are tested for their ability to inhibit the PGD2-mediated attenuation of the forskolin-induced cAMP accumulation in CHO.K1-CRTh2 cells.
For each concentration value on the dose-response curve, test compounds are prepared in assay stimulation buffer (HBSS, 5 mM HEPES, 10 μM IBMX±0.1% human serum albumin) containing DMSO (3% vol/vol) and 5 μL/well is added to an assay plate (384 well white optiplate).
CHO.K1-CRTh2 cultured in tissue culture flasks are washed with PBS and harvested with dissociation buffer. Cells are washed with PBS and re-suspended in stimulation buffer to a concentration of 0.4×10^6/mL and added to the assay plate (10 μL/well).
The assay plate is incubated at room temperature on a shaker for 15 minutes.
A mix of agonist (10 nM Prostaglandin D and 5 μM forskolin is prepared in assay stimulation buffer and added to the assay plate (5 μL/well).
In addition, a cAMP standard is serially diluted in assay stimulation buffer and added to separate empty wells on the assay plate (20 μL/well). The cAMP standard allows for the quantification of cAMP generated in CHO.K1-CRTH2 cells.
The assay plate is incubated at room temperature on a shaker for 60 minutes. […]
The assay plate is sealed with Topseal-S™ and incubated in the dark at room temperature on a shaker for 45 minutes. The plate is then counted using a Packard Fusion™ instrument. […]

human CRTh2 [2] = molecular target: T1, human CRTh2; assay: Filtration binding assay ([3H]-PGD2 competition on CHO.K1-CRTh2 membranes); parameters: expressed in transfected cells; host or cells: CHO.K1 (CHO.K1-CRTh2), membranes; conditions: [3H]-PGD2 2.5 nM, Cheng-Prussoff
Protocol: The binding of CRTh2 modulators is determined using membranes prepared from human CRTh2-expressing Chinese Hamster Ovary cells (CHO.K1-CRTh2). To produce cell membranes CHO.K1-CRTh2 cells cultured in roller bottles are harvested using cell dissociation buffer (Invitrogen). The cells are pelleted by centrifugation (167 g, 5 min). The cell pellet is incubated in hypotonic buffer (15 mM Tris-OH, 2 mM MgCl2, 0.3 mM EDTA, 1 mM EGTA, 1× Complete™ tablet) at 4° C. for 30 minutes. At 4° C. cells are homogenized using a Polytron®) (IKA Ultra Turrax T25) for 5 bursts of 1 second. The homogenate is centrifuged (Beckman Optima TM TL Ultracentrifuge, 48000 g, 30 minutes at 4° C.). The supernatant is discarded and the membrane pellet re-suspended in homogenisation buffer (75 mM Tris-OH, 12.5 mM MgCl2, 0.3 mM EDTA, 1 mM EGTA, 250 mM Sucrose, 1× Complete™ tablet. Membrane preparations are aliquoted and stored at […]. The protein content is estimated using Bradford Protein Assay Dye (Bio Rad).
The binding of [^3H]-PGD2 (157 Ci/mmol) to CHO.K1-CRTh2 membranes is determined in the absence (total binding) and presence (non-specific binding) of unlabelled PGD2 (1 μM). Subtraction of the cpm (counts per minute) of [^3H]-PGD2 binding in presence of excess unlabelled PGD2 from that observed in the absence of excess unlabelled PGD2 is defined as specific binding. Active CRTh2 antagonists are able to compete with [^3H]-PGD2 for binding to the CRTh2 receptor and are identified in a decrease in the number of cpm bound. […]
The plates are incubated at room temperature on a shaker for 1 hour, and then harvested (Tomtec Harvester 9600) onto GF/C filter plates using wash buffer (10 mM HEPES-KOH, pH 7.4). […] Plates are then counted using a Packard Top Count instrument, […]
Ki (dissociation constant for the inhibition) values for the CRTh2 antagonists are reported. Ki values are determined using Sigma Plots software, using the Cheng-Prussoff equation. […]

IC50 (human CRTh2 [1]) [nM] | Ki (human CRTh2 [2]) [nM] | SMILES
2 | 17 | N#Cc1cn(CC(=O)O)cc1-c1cc(C(F)(F)F)cc(S(=O)(=O)N2CCN(Cc3ccncc3)CC2)c1 [Example 3, {3-Cyano-4-[3-(4-pyridin-4-ylmethyl-piperazine-1-sulfonyl)-5-trifluoromethyl-phenyl]-pyrrol-1-yl}-acetic acid]
5 | 2 | Cc1ccc(CNS(=O)(=O)c2cc(-c3cn(CC(=O)O)cc3C#N)cc(C(F)(F)F)c2)o1 [Example 8, (3-Cyano-4-{3-[(5-methyl-furan-2-ylmethyl)-sulfamoyl]-5-trifluoromethyl-phenyl}-pyrrol-1-yl)-acetic acid]
26 | 49 | N#Cc1cn(CC(=O)O)cc1-c1cc(Cl)cc(S(=O)(=O)N2CCN(c3ccccc3F)CC2)c1 [Example 9, (3-{3-Chloro-5-[4-(2-fluoro-phenyl)-piperazine-1-sulfonyl]-phenyl}-4-cyano-pyrrol-1-yl)-acetic acid]
